Measured values reported in PubChem BioAssay AID806 (SRMLSC, 2007).
Calls of active or inactive are those of the source. No rule for the calls is given here.

System: virus-infected cells, CPE inhibition, dose response
Experiment: PubChem AID 806
Conditions: for EC90: measured here: EC90 CPE inhibition; for CC50: measured here: cytotoxicity, cell viability IC50

| SMILES | EC50 | EC90 [µM] | CC50 [µM] |
| --- | --- | --- | --- |
| COCCNC(=O)C(c1ccccc1)N(CCOC)C(=O)Cn1nnc2ccccc21 (centres undefined) | > 60 µM (inactive) | > 60 | > 60 |
| O=C(Nc1nc(-c2ccccc2)cs1)C1CCCCN1S(=O)(=O)c1ccccc1 (centres undefined) | > 60 µM (inactive) | > 60 | > 60 |
| Cc1ccc(NC(=O)c2noc3c2CCc2ccccc2-3)cc1 | > 60 µM (inactive) | > 60 | > 60 |
| COc1ccc(C(=O)C(CN2CCOCC2)c2ccccc2)cc1 (centres undefined) | > 60 µM (inactive) | > 60 | > 60 |
| CCSc1nnc(-c2ccc(Cl)cc2Cl)o1 | – | > 60 | 43.7 |
| COc1ccc(Cl)cc1NC(=O)CS(=O)(=O)c1cccc2nsnc12 | > 60 µM (inactive) | > 60 | > 60 |
| O=C(CSc1nnc2sc3ccccc3n12)NCc1ccco1 | – | > 60 | > 60 |
| CC(c1ccco1)N(C(=O)COc1ccccc1[N+](=O)[O-])c1ccccn1 (centres undefined) | > 60 µM (inactive) | > 60 | > 60 |
| Cc1cc(NC(=O)c2noc3c2CCc2ccccc2-3)no1 | > 60 µM (inactive) | > 60 | > 60 |
| O=C(CSc1ccc2nnc(-c3ccccc3)n2n1)NCc1ccco1 | > 60 µM (inactive) | > 60 | > 60 |
| Cc1nnc(SC(=O)N2c3ccccc3Sc3ccccc32)s1 | > 60 µM (inactive) | > 60 | > 60 |
| CCN(CC)C(=O)CN1CCN(c2ncccn2)CC1 | > 60 µM (inactive) | > 60 | > 60 |
| CCN(CC)C(=O)CSc1nnc2sc3ccccc3n12 | > 60 µM (inactive) | > 60 | > 60 |
| Cc1ccccc1NC(=O)c1ccc(NC(=O)c2ccco2)cc1 | > 60 µM (inactive) | > 60 | > 60 |
| COc1ccc(OC)c(-n2c(SC)nnc2-c2c[nH]c3ccccc23)c1 | > 60 µM (inactive) | > 60 | > 60 |
| O=C(NCC1CCCO1)C1CCCCN1S(=O)(=O)c1ccc(F)cc1 (centres undefined) | > 60 µM (inactive) | > 60 | > 60 |
| Cc1cccc(-n2ncc3c(Nc4ccc(F)cc4)ncnc32)c1 | > 60 µM (inactive) | > 60 | > 60 |
| COC(=O)CSc1nnc(-c2ccncc2)o1 | > 60 µM (inactive) | > 60 | > 60 |
| Cc1nc2c(C(=O)N3CCOCC3)cnn2c(C)c1Cc1ccc(Cl)cc1 | > 60 µM (inactive) | > 60 | > 60 |
| O=C(O)CCc1nnc2n(Cc3ccc(F)cc3)c(=O)c3ccccc3n12 | > 60 µM (inactive) | > 60 | > 60 |
| COC(=O)CSc1nnc([C@H](Cc2ccccc2)NC(=O)OC(C)(C)C)o1 | > 60 µM (inactive) | > 60 | > 60 |
| O=c1[nH]c2cccnc2n1Cc1ccccc1 | > 60 µM (inactive) | > 60 | > 60 |
| O=C(CSc1nnc2sc3ccccc3n12)N1CCN(c2ccccc2)CC1 | – | > 60 | > 60 |
| CCC(Oc1ccccc1)C(=O)Nc1ccc(-c2nnc(-c3ccco3)o2)cc1 (centres undefined) | > 60 µM (inactive) | > 60 | > 60 |

| SMILES | EC50 | EC90 [µM] | CC50 [µM] |
| --- | --- | --- | --- |
| COc1ccc(NC(=O)c2cc3ccccc3o2)cc1 | > 60 µM (inactive) | > 60 | > 60 |
| Cc1cc2cc(CNC(=O)c3ccc(S(=O)(=O)N(C)C)cc3)ccc2n1C | > 60 µM (inactive) | > 60 | > 60 |
| C=CCSc1nnc(-c2cccnc2)o1 | – | > 60 | > 60 |
| COc1ccccc1NC(=O)c1cc2ccccc2o1 | > 60 µM (inactive) | > 60 | > 60 |
| Cc1cc(=O)n2c(-c3ccccc3C)n[nH]c2n1 | > 60 µM (inactive) | > 60 | > 60 |
| COc1ccc(NC(=O)C2CCCCN2S(=O)(=O)c2ccc(F)cc2)cc1 (centres undefined) | > 60 µM (inactive) | > 60 | > 60 |
| CCOCCCNC(=O)C1CCCCN1S(=O)(=O)c1ccc(F)cc1 (centres undefined) | > 60 µM (inactive) | > 60 | > 60 |
| CCCCN(C(=O)Cn1nnc2ccccc21)C(C(=O)NCCOC)c1ccc(OC)cc1 (centres undefined) | > 60 µM (inactive) | > 60 | > 60 |
| COc1ccc(OC)c(-n2c(SCC(=O)NCc3ccco3)nnc2-c2c[nH]c3ccccc23)c1 | > 60 µM (inactive) | > 60 | > 60 |
| COc1ccc2c(c1)CCc1c(C(=O)N3CCCC3)noc1-2 | > 60 µM (inactive) | > 60 | > 60 |
| O=C(Nc1ccncc1)c1cc2ccccc2o1 | > 60 µM (inactive) | > 60 | > 60 |
| C=CCSc1nnc(-c2ccc(Cl)cc2Cl)o1 | 59.2 µM (inactive) | > 60 | > 60 |
| OCC#CCSc1nnc(-c2ccncc2)o1 | > 60 µM (inactive) | > 60 | > 60 |
| C#CCSc1nnc(-c2ccc(C)cc2)o1 | > 60 µM (inactive) | > 60 | > 60 |
| CCC(C)NC(=O)C1CCCCN1S(=O)(=O)c1ccc(F)cc1 (centres undefined) | > 60 µM (inactive) | > 60 | > 60 |
| COc1cccc(NC(=O)C2CC(=O)OC23CCOC(C)(C)C3)c1 (centres undefined) | > 60 µM (inactive) | > 60 | > 60 |
| COCCCNC(=O)C1CCCCN1S(=O)(=O)c1ccc(F)cc1 (centres undefined) | > 60 µM (inactive) | > 60 | > 60 |
| O=C(Nc1cccnc1)c1cc2c(ccc3ccccc32)o1 | > 60 µM (inactive) | > 60 | > 60 |
| O=C(CCS(=O)(=O)c1cccc2nsnc12)NC1CCCCC1 | > 60 µM (inactive) | > 60 | > 60 |
| O=C(CSc1ccc2nnc(-c3cccc(F)c3)n2n1)NCc1ccco1 | > 60 µM (inactive) | > 60 | > 60 |
| O=c1[nH]c2ccccc2n1Cc1ccc(Cl)cc1 | > 60 µM (inactive) | > 60 | > 60 |
| O=C(c1cnn2c(C(F)(F)F)cc(-c3ccccc3)nc12)N1CCOCC1 | > 60 µM (inactive) | > 60 | > 60 |
| Cn1c2ccccc2c(=O)c2c(=O)n(C3CCCCC3)c(-c3cccs3)nc21 | 59.3 µM (inactive) | > 60 | 6.45 |
| Cc1ccc(NC(=O)C2CC(=O)OC23CCOC(C)(C)C3)cc1 (centres undefined) | > 60 µM (inactive) | > 60 | > 60 |

| SMILES | EC50 | EC90 [µM] | CC50 [µM] |
| --- | --- | --- | --- |
| COc1ccc(NC(=O)C2CC(=O)OC23CCCCC3)cc1 (centres undefined) | > 60 µM (inactive) | > 60 | > 60 |
| O=C(CSc1ccc2nnc(-c3ccncc3)n2n1)NCc1ccco1 | > 60 µM (inactive) | > 60 | > 60 |
| Cc1c(NC(=O)CSc2nnc3sc4ccccc4n23)c(=O)n(-c2ccccc2)n1C | > 60 µM (inactive) | > 60 | > 60 |
| CCCCSc1nnc(-c2ccc(C)cc2)o1 | > 60 µM (inactive) | > 60 | > 60 |
| Clc1ccc(Nc2ncnc3c2cnn3-c2ccccc2)cc1 | > 60 µM (inactive) | > 60 | > 60 |
| CC(C)(C)OC(=O)NCCc1nnc(SCc2ccccc2Cl)o1 | > 60 µM (inactive) | > 60 | > 60 |
| Cc1nc2nc(-c3cccnc3)[nH]n2c(=O)c1Cc1ccccc1 | > 60 µM (inactive) | > 60 | > 60 |
| CCOC(=O)/C=C1\SCC(=O)N1CC(=O)NC(C)C | > 60 µM (inactive) | > 60 | > 60 |
| CCOC(=O)/C=C1\SCC(=O)N1CC(=O)NC12CC3CC(CC(C3)C1)C2 | > 60 µM (inactive) | > 60 | > 60 |
| CCCOc1ccc(C(=O)C(CN2CCOCC2)c2ccccc2)cc1 (centres undefined) | > 60 µM (inactive) | > 60 | > 60 |
| C#CCSc1nnc(-c2ccc(OC)cc2)o1 | > 60 µM (inactive) | > 60 | > 60 |
| COCc1cc(=O)n2c(-c3ccc(C)cc3)n[nH]c2n1 | > 60 µM (inactive) | > 60 | > 60 |
| COc1ccc(C)cc1NC(=O)c1cc2ccccc2o1 | > 60 µM (inactive) | > 60 | > 60 |
| CCS(=O)(=O)Nc1cccc(-c2nc3cccnc3s2)c1C | > 60 µM (inactive) | > 60 | > 60 |
| S=C(Nc1ccccc1)N1CCn2c1nc1ccccc12 | > 60 µM (inactive) | > 60 | > 60 |
| CCOC(=O)CN(C(=O)Cn1nnc2ccccc21)C(C(=O)NCCOC)c1ccccc1C (centres undefined) | > 60 µM (inactive) | > 60 | > 60 |
| Cc1nc2nc(-c3ccccc3)[nH]n2c(=O)c1Cc1ccccc1 | > 60 µM (inactive) | > 60 | > 60 |
| CCCCC(CC)CNC(=O)CCS(=O)(=O)c1cccc2nsnc12 (centres undefined) | > 60 µM (inactive) | > 60 | > 60 |
| CC(C)c1cccc(C(C)C)c1OCCn1ccnc1 | > 60 µM (inactive) | > 60 | > 60 |
| COc1ccccc1CNC(=O)c1ccc(S(=O)(=O)N(C)C)cc1 | > 60 µM (inactive) | > 60 | > 60 |
| O=C(Nc1c(-c2ccccc2)nc2sccn12)c1ccccc1 | 0.634 µM | > 60 | > 60 |
| CC(NC(=O)c1ccc(S(=O)(=O)N(C)C)cc1)c1ccccc1 (centres undefined) | > 60 µM (inactive) | > 60 | > 60 |
| Cc1ccc(C)c(Cc2c(C)nc3c(C(=O)N4CCOCC4)cnn3c2C)c1 | > 60 µM (inactive) | > 60 | > 60 |
